Data from the Deep4Chem optical property database.

Test: photoluminescence quantum yield (fraction); solvent given as SMILES

## CCCCCCCCC1(CCCCCCCC)c2cc3c(cc2-c2sc(-c4ccc(/C=C5\SC(=S)N(CC)C5=O)c5nsnc45)cc21)C(CCCCCCCC)(CCCCCCCC)c1cc(-c2ccc(/C=C4\SC(=S)N(CC)C4=O)c4nsnc24)sc1-3
In C1CCOC1
  photoluminescence quantum yield: 0.029
In ClC(Cl)Cl
  photoluminescence quantum yield: 0.04

## COC(=O)c1c(C(=O)OC)c2ccc(-c3ccccc3)nn2c1C
In CCCCCC
  photoluminescence quantum yield: 0.685

## CCCCN(CCCC)c1ccc(/C=C/c2ccc3nc(/C=C/c4ccc(N(C)C)cc4)c(=O)n(CCC)c3c2)cc1
In C1COCCO1
  photoluminescence quantum yield: 0.26
In CC#N
  photoluminescence quantum yield: 0.04
In ClCCl
  photoluminescence quantum yield: 0.2

## C[C@]12SC(=O)C=C1c1nc(-c3ccccc3O)[nH]c1C1=CC(=O)S[C@@]12C
In CC#N
  photoluminescence quantum yield: 0.01

## CC(C)(C)c1ccc2c(c1)c1cc(C(C)(C)C)ccc1n2-c1ccc2oc3nc4oc5ccc(C(F)(F)F)cc5c4cc3c2c1
In C1CCCCC1
  photoluminescence quantum yield: 0.113
In C1CCOC1
  photoluminescence quantum yield: 0.073
In CC#N
  photoluminescence quantum yield: 0.032
In CS(C)=O
  photoluminescence quantum yield: 0.124
In Cc1ccccc1
  photoluminescence quantum yield: 0.094
In ClC(Cl)Cl
  photoluminescence quantum yield: 0.058

## CC(C)c1ccc(/C=C/c2nc3ccc(N(C)C)cc3s2)cc1
In C1CCCCC1
  photoluminescence quantum yield: 0.51
In CC#N
  photoluminescence quantum yield: 0.54

## c1ccc(CSc2c3ccc(=[N+]4CCCCC4)cc-3oc3cc(N4CCCCC4)ccc23)cc1
In ClCCl
  photoluminescence quantum yield: 0.79

## COc1ccc2nc(N)n[n+]([O-])c2c1
In CC#N
  photoluminescence quantum yield: 0.472
In O
  photoluminescence quantum yield: 0.0868

## Fc1nc(F)c(F)c(C#Cc2cc3c(cc2C#Cc2c(F)c(F)nc(F)c2F)OC2(CCCCC2)O3)c1F
In CC#N
  photoluminescence quantum yield: 0.9

## O=c1c2ccccc2nc2n1[B-](F)(F)[n+]1ccccc1-2
In CC#N
  photoluminescence quantum yield: 0.78
In ClCCl
  photoluminescence quantum yield: 0.99

## CC[N+]1(CC)CN2C(=N1)C(C(=O)O)=Cc1ccccc12
In CN(C)C=O
  photoluminescence quantum yield: 0.006
In O
  photoluminescence quantum yield: 0.531

## CN(C)CCNCc1c2ccccc2cc2ccccc12
In C1CCCCC1
  photoluminescence quantum yield: 0.0769
In C1CCOC1
  photoluminescence quantum yield: 0.00216
In CC#N
  photoluminescence quantum yield: 0.00137
In CC(C)=O
  photoluminescence quantum yield: 0.0234
In CCO
  photoluminescence quantum yield: 0.0179
In CN(C)C=O
  photoluminescence quantum yield: 0.00064
In CO
  photoluminescence quantum yield: 0.0124
In ClC(Cl)Cl
  photoluminescence quantum yield: 0.0315

## c1ccccc1
In C1CCCCC1
  photoluminescence quantum yield: 0.14

## O=C1NC(=O)c2ccc3c4ccc5c6c(ccc(c7ccc1c2c73)c64)C(=O)N(c1ccc(Cl)cc1)C5=O
In CN(C)C=O
  photoluminescence quantum yield: 0.98

## CCc1c(C)c2n(c1C)[B-](F)(F)[N+]1=C(NCc3ccc(OC)cc3)C=CC1=C2C
In CC#N
  photoluminescence quantum yield: 0.65
In CCCCCC
  photoluminescence quantum yield: 0.73
In CCOC(C)=O
  photoluminescence quantum yield: 0.59
In CO
  photoluminescence quantum yield: 0.59
In ClCCl
  photoluminescence quantum yield: 0.61

## COc1ccccc1C1=[N+]2C(=Cc3c4c(c(-c5ccccc5OC)n3[B-]2(F)F)C2CCC4CC2)C2=C1C1CCC2CC1
In ClCCl
  photoluminescence quantum yield: 0.77

## COc1ccc(-c2cc3c(ccc4sccc43)s2)cc1
In ClCCl
  photoluminescence quantum yield: 0.55

## F[B-]1(F)n2c(cc3c2-c2ccccc2CC3)C(c2ccc(I)cc2)=C2C=C3CCc4ccccc4C3=[N+]21
In ClC(Cl)Cl
  photoluminescence quantum yield: 0.38

## c1cc2ccc3cc4[nH]c(-c5cc6c(cc7ccc8cccc9ccc6c7c89)[nH]5)cc4c4ccc(c1)c2c34
In C1CCOC1
  photoluminescence quantum yield: 0.5

## Cc1cn2cc(-c3ccccc3)[n-][n+]2c1
In ClCCl
  photoluminescence quantum yield: 0.074

## O=C1c2cccc3cc(C#CC#Cc4cc5c6c(cccc6c4)C(=O)N(c4ccccc4)C5=O)cc(c23)C(=O)N1c1ccccc1
In ClCCl
  photoluminescence quantum yield: 0.79

## Cc1ccccc1-c1c2ccc(=[N+]3CCN(C(=O)OC(C)(C)C)CC3)cc-2oc2cc(N3CCN(C(=O)OC(C)(C)C)CC3)ccc12
In CCO
  photoluminescence quantum yield: 0.19
In ClCCl
  photoluminescence quantum yield: 0.47

## c1ccc(-c2nc(-c3ccc(N4c5ccccc5C(c5ccccc5)(c5ccccc5)c5ccccc54)cc3)cc(-c3ccccn3)n2)cc1
In O=P(c1ccccc1)(c1ccccc1)c1ccccc1Oc1ccccc1P(=O)(c1ccccc1)c1ccccc1
  photoluminescence quantum yield: 0.83

## Cc1cc(C)c2nc3c(=O)[nH]c(=O)[nH]c3nc2c1
In CC#N
  photoluminescence quantum yield: 0.02

## CC1(C)C(/C=C/C2=C(c3ccc(C(=O)O)cc3)C(=C/C=C3/N(CCCCS(=O)(=O)[O-])c4ccc(S(=O)(=O)[O-])cc4C3(C)C)/CCC2)=[N+](CCCCS(=O)(=O)[O-])c2ccc(S(=O)(=O)[O-])cc21
In CO
  photoluminescence quantum yield: 0.1

## COc1cc(C2=CC(c3ccccc3)=C(c3ccccc3)C2)cc(OC)c1OC
In ClCCl
  photoluminescence quantum yield: 0.0137

## CCCCCN(c1ccccc1)c1ccc2c(c1)C(CC)(CC)c1cc(/C=C/c3ccc(/C=C(\C#N)C(=O)O)s3)ccc1-2
In C1CCOC1
  photoluminescence quantum yield: 0.405
In C1COCCO1
  photoluminescence quantum yield: 0.969
In CC#N
  photoluminescence quantum yield: 0.025
In CC(C)=O
  photoluminescence quantum yield: 0.223
In CCOC(C)=O
  photoluminescence quantum yield: 0.801
In CN(C)C=O
  photoluminescence quantum yield: 0.651
In CS(C)=O
  photoluminescence quantum yield: 0.622
In ClCCl
  photoluminescence quantum yield: 0.005
